Measurements as given in patent US5843889A, “Glycopeptide antibiotic derivatives” (Eli Lilly and Company, priority 1997, dated 1998).
≈ marks a conversion by molar mass, not a printed value.

What was measured:
Assay in all cases: MIC, standard broth micro-dilution assay
Assay type in all cases: cell-based
[1] = test system: Entercoccus faecalis 2041
Experimental: (§1) The formula I compounds have in vitro and in vivo activity against Gram-positive pathogenic bacteria. The MIC's were determined using a standard broth micro-dilution assay.

Entercoccus faecalis 276 = test system: Entercoccus faecalis 276
Experimental: as §1

[2] = test system: Entercoccus gallinarum 245
Experimental: as §1

| MIC [1] | MIC (Entercoccus faecalis 276) | MIC [2] | SMILES |
| --- | --- | --- | --- |
| 1 µg/mL (≈ 0.543 µM) | 1 µg/mL (≈ 0.543 µM) | 2 µg/mL (≈ 1.09 µM) | CNC(CC(C)C)C(=O)NC1C(=O)NC(CC(N)=O)C(=O)NC2C(=O)NC3C(=O)NC(C(=O)NC(C(=O)O)c4cc(O)cc(O)c4-c4cc3ccc4O)C(OC3CC(C)(N)C(O)C(C)O3)c3ccc(c(Cl)c3)Oc3cc2cc(c3OC2OC(CO)C(O)C(O)C2OC2CC(C)(NCc3cccc(Oc4ccc(C(F)(F)F)cc4)c3)C(O)C(C)O2)Oc2ccc(cc2Cl)C1O (stereo not drawn) [Compound 132, 3-[4-trifluoromethylphenoxy]benzyl] |
| ≤ 0.06 µg/mL | 0.5 µg/mL (≈ 0.29 µM) | 4 µg/mL (≈ 2.32 µM) | CNC(CC(C)C)C(=O)NC1C(=O)NC(CC(N)=O)C(=O)NC2C(=O)NC3C(=O)NC(C(=O)NC(C(=O)O)c4cc(O)cc(O)c4-c4cc3ccc4O)C(OC3CC(C)(N)C(O)C(C)O3)c3ccc(c(Cl)c3)Oc3cc2cc(c3OC2OC(CO)C(O)C(O)C2OC2CC(C)(NCC3=CCC4CC3C4(C)C)C(O)C(C)O2)Oc2ccc(cc2Cl)C1O (stereo not drawn) [Compound 170] |
| ≤ 0.06 µg/mL | ≤ 0.06 µg/mL | 2 µg/mL (≈ 1.1 µM) | CNC(CC(C)C)C(=O)NC1C(=O)NC(CC(N)=O)C(=O)NC2C(=O)NC3C(=O)NC(C(=O)NC(C(=O)O)c4cc(O)cc(O)c4-c4cc3ccc4O)C(OC3CC(C)(N)C(O)C(C)O3)c3ccc(c(Cl)c3)Oc3cc2cc(c3OC2OC(CO)C(O)C(O)C2OC2CC(C)(NCc3ccc(Oc4ccccc4[N+](=O)[O-])cc3)C(O)C(C)O2)Oc2ccc(cc2Cl)C1O (stereo not drawn) [Compound 70, 4-[2-nitrophenoxy]benzyl] |
| ≤ 0.06 µg/mL | 0.25 µg/mL (≈ 0.139 µM) | 4 µg/mL (≈ 2.23 µM) | CNC(CC(C)C)C(=O)NC1C(=O)NC(CC(N)=O)C(=O)NC2C(=O)NC3C(=O)NC(C(=O)NC(C(=O)O)c4cc(O)cc(O)c4-c4cc3ccc4O)C(OC3CC(C)(N)C(O)C(C)O3)c3ccc(c(Cl)c3)Oc3cc2cc(c3OC2OC(CO)C(O)C(O)C2OC2CC(C)(NCCCCCCCCOc3ccccc3)C(O)C(C)O2)Oc2ccc(cc2Cl)C1O (stereo not drawn) [Compound 195, 8-phenoxyoctyl] |
| 0.5 µg/mL (≈ 0.278 µM) | 1 µg/mL (≈ 0.555 µM) | 2 µg/mL (≈ 1.11 µM) | CCCc1ccc(-c2ccc(CNC3(C)CC(OC4C(Oc5c6cc7cc5Oc5ccc(cc5Cl)C(OC5CC(C)(N)C(O)C(C)O5)C5NC(=O)C(NC(=O)C7NC(=O)C(CC(N)=O)NC(=O)C(NC(=O)C(CC(C)C)NC)C(O)c7ccc(c(Cl)c7)O6)c6ccc(O)c(c6)-c6c(O)cc(O)cc6C(C(=O)O)NC5=O)OC(CO)C(O)C4O)OC(C)C3O)cc2)cc1 (stereo not drawn) [Compound 107, 4-[4-propylphenyl]benzyl] |
| ≤ 0.06 µg/mL | ≤ 0.06 µg/mL | 4 µg/mL (≈ 2.35 µM) | CNC(CC(C)C)C(=O)NC1C(=O)NC(CC(N)=O)C(=O)NC2C(=O)NC3C(=O)NC(C(=O)NC(C(=O)O)c4cc(O)cc(O)c4-c4cc3ccc4O)C(OC3CC(C)(N)C(O)C(C)O3)c3ccc(c(Cl)c3)Oc3cc2cc(c3OC2OC(CO)C(O)C(O)C2OC2CC(C)(NCc3ccc(O)cc3)C(O)C(C)O2)Oc2ccc(cc2Cl)C1O (stereo not drawn) [Compound 136, 4-hydroxybenzyl] |
| ≤ 0.06 µg/mL | ≤ 0.06 µg/mL | 4 µg/mL (≈ 2.21 µM) | CNC(CC(C)C)C(=O)NC1C(=O)NC(CC(N)=O)C(=O)NC2C(=O)NC3C(=O)NC(C(=O)NC(C(=O)O)c4cc(O)cc(O)c4-c4cc3ccc4O)C(OC3CC(C)(N)C(O)C(C)O3)c3ccc(c(Cl)c3)Oc3cc2cc(c3OC2OC(CO)C(O)C(O)C2OC2CC(C)(NCc3ccc(OCCC4CCCCC4)cc3)C(O)C(C)O2)Oc2ccc(cc2Cl)C1O (stereo not drawn) [Compound 127, 4-[cyclohexylethoxy]benzyl] |
| ≤ 0.06 µg/mL | 0.25 µg/mL (≈ 0.14 µM) | 8 µg/mL (≈ 4.48 µM) | CNC(CC(C)C)C(=O)NC1C(=O)NC(CC(N)=O)C(=O)NC2C(=O)NC3C(=O)NC(C(=O)NC(C(=O)O)c4cc(O)cc(O)c4-c4cc3ccc4O)C(OC3CC(C)(N)C(O)C(C)O3)c3ccc(c(Cl)c3)Oc3cc2cc(c3OC2OC(CO)C(O)C(O)C2OC2CC(C)(NCc3ccc4c(c3O)Cc3ccccc3-4)C(O)C(C)O2)Oc2ccc(cc2Cl)C1O (stereo not drawn) [Compound 103, 2-[1-hydroxy]fluorenylmethyl] |
| 1 µg/mL (≈ 0.557 µM) | 2 µg/mL (≈ 1.11 µM) | 8 µg/mL (≈ 4.46 µM) | CNC(CC(C)C)C(=O)NC1C(=O)NC(CC(N)=O)C(=O)NC2C(=O)NC3C(=O)NC(C(=O)NC(C(=O)O)c4cc(O)cc(O)c4-c4cc3ccc4O)C(OC3CC(C)(N)C(O)C(C)O3)c3ccc(c(Cl)c3)Oc3cc2cc(c3OC2OC(CO)C(O)C(O)C2OC2CC(C)(NCc3ccc(-c4ccc(OC)cc4)s3)C(O)C(C)O2)Oc2ccc(cc2Cl)C1O (stereo not drawn) [Compound 71, 5-[4-methoxyphenyl]-2-thienylinethyl] |
| ≤ 0.06 µg/mL | ≤ 0.06 µg/mL | 8 µg/mL (≈ 4.78 µM) | C=CCCCCNC1(C)CC(OC2C(Oc3c4cc5cc3Oc3ccc(cc3Cl)C(OC3CC(C)(N)C(O)C(C)O3)C3NC(=O)C(NC(=O)C5NC(=O)C(CC(N)=O)NC(=O)C(NC(=O)C(CC(C)C)NC)C(O)c5ccc(c(Cl)c5)O4)c4ccc(O)c(c4)-c4c(O)cc(O)cc4C(C(=O)O)NC3=O)OC(CO)C(O)C2O)OC(C)C1O (stereo not drawn) [Compound 217, 5-hexenyl] |
| 0.25 µg/mL (≈ 0.141 µM) | 0.5 µg/mL (≈ 0.281 µM) | 4 µg/mL (≈ 2.25 µM) | CCCCCC#Cc1ccc(CNC2(C)CC(OC3C(Oc4c5cc6cc4Oc4ccc(cc4Cl)C(OC4CC(C)(N)C(O)C(C)O4)C4NC(=O)C(NC(=O)C6NC(=O)C(CC(N)=O)NC(=O)C(NC(=O)C(CC(C)C)NC)C(O)c6ccc(c(Cl)c6)O5)c5ccc(O)c(c5)-c5c(O)cc(O)cc5C(C(=O)O)NC4=O)OC(CO)C(O)C3O)OC(C)C2O)cc1 (stereo not drawn) [Compound 227, 4-[1-heptynyl]benzyl] |
| ≤ 0.06 µg/mL | 1 µg/mL (≈ 0.559 µM) | 0.5 µg/mL (≈ 0.28 µM) | CNC(CC(C)C)C(=O)NC1C(=O)NC(CC(N)=O)C(=O)NC2C(=O)NC3C(=O)NC(C(=O)NC(C(=O)O)c4cc(O)cc(O)c4-c4cc3ccc4O)C(OC3CC(C)(N)C(O)C(C)O3)c3ccc(c(Cl)c3)Oc3cc2cc(c3OC2OC(CO)C(O)C(O)C2OC2CC(C)(NCc3ccc(-c4ccc(OC)cc4)cc3)C(O)C(C)O2)Oc2ccc(cc2Cl)C1O (stereo not drawn) [Compound 54, 4-[4-methoxyphenyl]benzyl] |
| ≤ 0.06 µg/mL | ≤ 0.06 µg/mL | 8 µg/mL (≈ 4.55 µM) | CNC(CC(C)C)C(=O)NC1C(=O)NC(CC(N)=O)C(=O)NC2C(=O)NC3C(=O)NC(C(=O)NC(C(=O)O)c4cc(O)cc(O)c4-c4cc3ccc4O)C(OC3CC(C)(N)C(O)C(C)O3)c3ccc(c(Cl)c3)Oc3cc2cc(c3OC2OC(CO)C(O)C(O)C2OC2CC(C)(NCc3ccc(-c4ccccn4)cc3)C(O)C(C)O2)Oc2ccc(cc2Cl)C1O (stereo not drawn) [Compound 137, 4-[2-pyridyl]benzyl] |
| 0.5 µg/mL (≈ 0.281 µM) | 1 µg/mL (≈ 0.562 µM) | 0.5 µg/mL (≈ 0.281 µM) | CNC(CC(C)C)C(=O)NC1C(=O)NC(CC(N)=O)C(=O)NC2C(=O)NC3C(=O)NC(C(=O)NC(C(=O)O)c4cc(O)cc(O)c4-c4cc3ccc4O)C(OC3CC(C)(N)C(O)C(C)O3)c3ccc(c(Cl)c3)Oc3cc2cc(c3OC2OC(CO)C(O)C(O)C2OC2CC(C)(NCc3ccc(N4CCN(C)CC4)cc3)C(O)C(C)O2)Oc2ccc(cc2Cl)C1O (stereo not drawn) [Compound 146, 4-[4-methylpiperazino]benzyl] |
